From EP4268823A1, “COMPOUND FOR TREATING NEUROINFLAMMATION” (Universitätsklinikum Hamburg-Eppendorf, priority 2022, dated 2023)

Columns and labels:
anti-ferroptotic genes = assay: qPCR of ferroptosis-related genes in sorted spinal cord neuronal nuclei of EAE mice; assay type: in vivo, mouse; details: EAE + UNC0642 vs. EAE
G9a = molecular target: T1, G9a (Homo sapiens, UniProt Q96KQ7); assay: H3K9me2 immunostaining in hiPSC neurons after erastin; assay type: cell-based; details: erastin + UNC0642
T1 construct: H3K9me2 immunostaining and quantification in response to ferroptosis induction with erastin in hiPSC neurons; endogenous in cells; host or cells: neurons differentiated from human iPSCs (ZIPi013-B)
T1 sequence (Q96KQ7 1-1210): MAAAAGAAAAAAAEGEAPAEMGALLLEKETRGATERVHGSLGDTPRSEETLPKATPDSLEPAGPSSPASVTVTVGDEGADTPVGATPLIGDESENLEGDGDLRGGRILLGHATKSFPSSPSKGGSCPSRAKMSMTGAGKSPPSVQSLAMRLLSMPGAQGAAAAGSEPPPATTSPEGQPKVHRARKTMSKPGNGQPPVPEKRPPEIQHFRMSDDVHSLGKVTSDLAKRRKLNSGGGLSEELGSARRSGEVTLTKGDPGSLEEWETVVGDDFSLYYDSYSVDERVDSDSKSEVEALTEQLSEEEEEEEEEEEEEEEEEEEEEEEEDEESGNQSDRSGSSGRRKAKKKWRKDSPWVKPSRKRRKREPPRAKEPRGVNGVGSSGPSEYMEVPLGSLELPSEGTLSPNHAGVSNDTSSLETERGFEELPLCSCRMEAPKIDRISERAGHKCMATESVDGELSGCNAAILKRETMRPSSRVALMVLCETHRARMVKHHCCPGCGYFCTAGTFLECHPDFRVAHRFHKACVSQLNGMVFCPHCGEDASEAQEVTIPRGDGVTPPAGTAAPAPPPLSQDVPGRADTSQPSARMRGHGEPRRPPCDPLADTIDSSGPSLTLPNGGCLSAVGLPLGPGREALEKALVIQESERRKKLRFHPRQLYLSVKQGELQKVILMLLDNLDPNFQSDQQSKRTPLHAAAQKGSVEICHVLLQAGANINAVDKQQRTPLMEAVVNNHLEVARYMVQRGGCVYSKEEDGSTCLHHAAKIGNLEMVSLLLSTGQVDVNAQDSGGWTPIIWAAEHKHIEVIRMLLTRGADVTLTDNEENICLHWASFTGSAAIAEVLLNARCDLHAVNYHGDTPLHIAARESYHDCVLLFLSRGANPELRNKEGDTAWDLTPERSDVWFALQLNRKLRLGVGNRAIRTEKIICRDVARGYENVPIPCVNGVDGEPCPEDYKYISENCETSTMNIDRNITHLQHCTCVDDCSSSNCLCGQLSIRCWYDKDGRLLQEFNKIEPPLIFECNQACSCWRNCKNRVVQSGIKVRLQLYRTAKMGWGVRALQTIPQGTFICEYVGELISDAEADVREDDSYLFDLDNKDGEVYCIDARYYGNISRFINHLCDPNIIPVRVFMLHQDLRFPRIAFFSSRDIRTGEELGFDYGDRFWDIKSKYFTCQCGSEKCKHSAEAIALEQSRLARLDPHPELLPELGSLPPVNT
Text: Human iPSCs (ZIPi013-B) (83) were maintained under feeder-free conditions on Matrigel (Corning)-coated plates in mTeSR1 medium (Stem Cell Technologies, cat. no. 85850). For neuronal induction, iPSCs were dissociated with Accutase and seeded at a density of 3 × 10^6 cells per well on AggreWell800 plates (10,000 cells per embryoid body (EB), Stem Cell Technologies) in SMADi Neural Induction Medium (SMADi NIM, Stem Cell Technologies, cat. no. 08582) supplemented with […] (Stem Cell Technologies, cat. no. 72302). On day 6, EBs were harvested and cultivated on Matrigel-coated plates in SMADi NIM for 12 days. Newly formed neural rosettes were manually picked and cultured for another 4 days. In order to release neural precursor cells (NPCs), neural rosettes were dissociated with Accutase and were maintained for several passages at high density in Neural Progenitor Medium (Stem Cell Technologies, cat. no. 05833) on Matrigel-coated plates. HiPSC-derived NPCs were differentiated into neurons as previously described (84, 85) with some modifications. Briefly, NPCs were seeded at a density of 1 × 10^5 cells per cm^2 in Neural Progenitor Medium onto Matrigel-coated plates. […]
Immunocytochemistry was performed as described previously (15). […] Immunostainings were analyzed with a Zeiss LSM 700 confocal microscope.

EAE mice = assay: Experimental autoimmune encephalomyelitis (EAE): clinical score and spinal cord histopathology

COc1cc2c(NC3CCN(C(C)C)CC3)nc(N3CCC(F)(F)CC3)nc2cc1OCCCN1CCCC1 [UNC0642, 2-(4,4-difluoropiperidin-1-yl)-6-methoxy-N-[1-(propan-2-yl)piperidin-4-yl]-7-[3-(pyrrolidin-1-yl)propoxy]quinazolin-4-amine]
mRNA expression of Cbs (anti-ferroptotic genes): significantly boosted the expression | mRNA expression of Gclc (anti-ferroptotic genes): significantly boosted the expression | mRNA expression of Gpx4 (anti-ferroptotic genes): significantly boosted the expression | mRNA expression of Nfe212 (anti-ferroptotic genes): significantly boosted the expression | mRNA expression of multiple glutathione S-transferases (anti-ferroptotic genes): derepression | increase of H3K9me2 levels in response to erastin-induced ferroptosis (G9a): rescued | EAE disease course (EAE mice; 5 mg kg-1 body weight once daily intraperitoneally from symptom onset, vs. vehicle): significantly ameliorated EAE disease course | body weight changes (EAE mice; EAE, 5 mg kg-1 UNC0642): not altered | immune cell infiltration (EAE mice; EAE, 5 mg kg-1 UNC0642): not altered | microglia activation (EAE mice; EAE, 5 mg kg-1 UNC0642): not altered | 4-hydroxy-2-nonenal (4-HNE) levels (EAE mice; cervical spinal cord sections, chronic EAE, 5 mg kg-1 UNC0642 vs. vehicle): significantly reduced | neuronal loss in the spinal cord ventral horn (EAE mice; chronic EAE, day 30, 5 mg kg-1 UNC0642): reduced neuronal loss
